Results taken from PMC9521028, “Lengthening the Guanidine–Aryl Linker of Phenylpyrimidinylguanidines Increases Their Potency as Inhibitors of FOXO3-Induced Gene Transcription” (ACS Omega, 2022).
Values after ≈ are worked out from the molar mass of the structure shown.

Legend:
[1] = tested on: FOXO3-induced apoptotic cell death in SH-EP/FOXO3 neuroblastoma cells; assay: Resazurin early cell death evaluation assay; assay type: cell-based
Description: Moreover, we also attempted to determine the IC50 values of 5ci, 5cj, and 5db using a resazurin early cell death evaluation assay in cells expressing a conditional FOXO3 allele that triggers apoptotic cell death upon activation.
Neuroblastoma cells SH-EP/FOXO3 were seeded into 96-well plates and treated with concentrations 0.05, 0.1, 0.2, 0.39, 0.78, 1.56, 3.125, 6.25, 12.5, 18.75, and 25 μM of 5ca and its derivatives 30 min before activating ectopic FOXO3 by 100 nM 4OHT. For 5ca derivatives, concentrations above 3.125 μM had to be excluded from the analysis due to spontaneous cell death induction. Resazurin salt (Sigma-Aldrich s.r.o., St. Louis, Missouri) was diluted to a final concentration of 0.01% (wt/vol), and 20 μL of this dilution was added to 200 μL of the cell culture in each well 24 h after FOXO3 activation. Resazurin is reduced in viable cells to red-fluorescent resoflurin, which was quantified in a Hidex Chameleon—Multilabel Microplate Reader (Hidex, Turku, Finland) at filter settings 544 nm Ex/616 nm Em.

FOXO3-DBD = target: T1, FOXO3-DBD (Homo sapiens, UniProt O43524); assay: NMR (1H STD and 1H-15N HSQC titration) of compound binding to FOXO3-DBD; conditions: 15 μM FOXO3-DBD, 1 mM compound, pH 6.5, 298 K
T1 construct: DNA encoding human FOXO3-DBD (residues 156–269); GST (N, cleaved yes); made in house; host or cells: E. coli BL21(DE3)
Description: STD experiment was performed at 298 K on a Bruker Avance III HD 850 MHz spectrometer (Bruker, Billerica, Massachusetts) equipped with a ^13C/^1H/^15N cryoprobe. The 550 μL sample contained 15 μM FOXO3-DBD and 1 mM 5cj in 20 mM phosphate buffer (pH 6.5) supplemented by 50 mM KCl and 10% ^2H2O. ^1H STD NMR was performed using a standard “stddiffesgp” pulse sequence with excitation sculpting and pulse-field gradients for water suppression. On-resonance irradiation was done at −0.54 ppm and off-resonance irradiation at 30 ppm, using a 50 ms shaped Eburp2.1000 pulse of power 40 dB for a saturation time of 3 s. The difference spectra were obtained by subtracting the on-resonance spectrum from the off-resonance spectrum. The spectra were analyzed using TopSpin software (v3.6).
2D ^1H–^15N HSQC spectra were acquired on both Bruker Avance III HD 850 MHz and Bruker Avance III 600 MHz (Bruker, Billerica, Massachusetts) spectrometers equipped with a ^13C/^1H/^15N cryoprobe. All HSQC experiments were measured at 298 K in Shigemi NMR tubes (Shigemi Co., Ltd., Tokyo, Japan) containing 350 μL of sample in 100 mM phosphate buffer (pH 6.5) supplemented with 50 mM KCl and 10% ^2H2O. […] All spectra were processed in TopSpin software (v3.6) and evaluated in Sparky software (v3.1).[43] CSP values obtained from 2D ^1H–^15N HSQC experiments were calculated using the following formula[44] […]

[2] = Estimation of compound solubility in water (saturated solution, UV-vis); assay type: physicochemical; conditions: aqueous buffer, thermodynamic from solid; 20 mM phosphate (pH 6.5) and 50 mM KCl buffer at 23 °C
Description: To estimate the solubility, we prepared saturated solutions of the compounds by adding 5 mg of each selected compound to 700 μL of 20 mM phosphate buffer (pH 6.5) containing 50 mM KCl. After 48 h of gentle agitation at room temperature (RT), the solutions were spun down, and the supernatant was filtered through 0.2 μm of SPARTAN 13/0.2 RC filter units (Merck KgaA, Darmstadt, Germany) and diluted 100–200× in the same phosphate buffer. The diluted solutions were transferred into the quartz cuvette, recording UV–vis absorption spectra in the range from 200 to 600 nm on a UV-1800 UV/visible scanning spectrophotometer (Shimadzu, Kyoto, Japan) at room temperature. The compound concentrations were estimated by the single point calibration using the absorption at wavelengths higher than 240 nm outside of DMSO absorption of 2000× diluted 50 mM DMSO-dissolved stock solution in phosphate buffer.

[3] = tested on: endogenous DEPP1 and actin promoters in SH-EP cells; assay: Toxicity control: endogenous DEPP1 and actin promoter luciferase reporters; assay type: cell-based; conditions: 0.78 μM, SH-EP cells
Description: (§1) The ability of these compounds to inhibit FOXO3 transcriptional activity was further examined by assessing their effect on FOXO3 binding to the promoter region of decidual protein induced by progesterone 1 (DEPP1) after transfecting a DEPP1-luciferase reporter plasmid into SH-EP neuroblastoma cells stably expressing a 4-hydroxy-tamoxifen (4OHT)-regulated FOXO3(A3)ERtm transgene. […] In parallel, the toxicity of the compounds was tested by assessing their effect on endogenous DEPP1 and actin promoters in SH-EP cells.
For this purpose, 2 × 10^6 SH-EP cells were transfected with either a DEPP1-LUC-reporter plasmid or an actin-LUC reporter plasmid using JetPrime reagent (Polyplus, Berkeley). Actin-LUC was constructed by inserting a 1.3 kb fragment of the chicken β actin promoter into pGL3-luc reporter vector (Promega, Madison). After 24 h of transfection, the cells were seeded into 24-well plates. After another 24 h, the cells were pretreated with indicated concentrations of compound for 3.5 h. Firefly-luciferase was analyzed using the Luciferase Assay System (Promega, Madison). Luminescence intensity was measured in a Hidex Chameleon—Multilabel Microplate Reader (Hidex, Turku, Finland).

[4] = tested on: FOXO3 binding to the promoter region of DEPP1 in SH-EP/FOXO3 cells; assay: DEPP1-luciferase reporter assay of FOXO3 transcriptional activity; assay type: cell-based
Description: as §1
Transcriptional activation of the DEPP1 promoter by conditional FOXO3 was assessed after transfection of a DEPP1-luciferase reporter plasmid pGS c10orf10 Prom wt (DEPP1-LUC)[20] into SH-EP/FOXO3 cells using the JetPrime reagent (Polyplus, Berkeley). After 24 h of transfection, mTFP fluorescent protein expression from a cotransfected expression vector was assessed by live cell fluorescence microscopy to verify equal transfection rates before seeding cells into 24-well plates. After 48 h of transfection, the cells were pretreated with indicated concentrations of each compound (30 min) before adding 100 nM 4-hydroxy-tamoxifen (4OHT) for 3 h to activate ectopic FOXO3. Firefly-luciferase was analyzed using the Luciferase Assay System (Promega, Madison). Luminescence intensity was measured in a Hidex Chameleon—Multilabel Microplate Reader (Hidex, Turku, Finland).

T1 sequence (O43524 156-269): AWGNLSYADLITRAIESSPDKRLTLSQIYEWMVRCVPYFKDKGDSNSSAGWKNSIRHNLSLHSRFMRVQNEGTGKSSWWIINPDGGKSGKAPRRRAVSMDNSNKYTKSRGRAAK

Cc1cc(C)nc(NC(=N)NCCc2ccccc2)n1 [5cj, 1-(4,6-Dimethylpyrimidin-2-yl)-3-phenethylguanidine]
IC50 ([1]; Neuroblastoma cell, SH-EP/FOXO3 cells, 100 nM 4OHT, 24 h, approximate, toxicity prevented accurate determination, read-out: IC50, inhibition of FOXO3-induced cell death): ~1000 nM
concentration above which the compound is toxic (spontaneous cell death) ([1]; SH-EP/FOXO3 cells): higher than 4 μM
fold lower IC50 than that of 5ca ([1]; resazurin assay, ratio to 5ca IC50 of ∼8 μM): 8–16 ×
1H STD NMR signals with FOXO3-DBD (FOXO3-DBD): STD signals were detected
solubility at 48 h [2]: 13 mM (≈ 3500 µg/mL)
effect on endogenous DEPP1 and actin promoters (toxicity markers) [3]: without any effect
potency in blocking FOXO3 binding to the promoter region of DEPP1 ([4]; 25 and 12.5 μM compound): the most potent compounds
efficiency of blocking FOXO3 binding to the promoter region of DEPP1 ([4]; lower concentrations, down to 0.78 μM): more efficiently than 5cg, 5da, and 5dc
inhibition of FOXO3-mediated transcription ([4]; lowest concentration tested, 0.78 μM): significantly inhibited
inhibitory potency on target gene activation by FOXO3 (in words) ([4]; summary of the reporter data, Figures 2, S2, S3): highest inhibitory potency
